The subject of the assay is L1210 leukemia ip in BDF1 mice, survival T/C. Description: NCI In Vivo Anticancer Drug Screen. Data for tumor model L1210 Leukemia (intraperitoneal) in B6D2F1 (BDF1) mice. The settings on record: endpoint: mean survival time, higher = longer survival. The method in brief: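 In this screen, tumor-bearing mice given compound are compared to those given vehicle, and their survival values are reported as a treated-to-control quotient.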

Setting [1] is: dose: 100.0 mg/kg/injection, schedule: Q04DX003 (ip), vehicle: saline with Tween-80.
Where [2] appears, read: dose: 200.0 mg/kg/injection, schedule: Q04DX003 (ip), vehicle: saline with Tween-80.
Where [3] appears, read: dose: 400.0 mg/kg/injection, schedule: Q04DX003 (ip), vehicle: saline with Tween-80.
Setting [4] is: dose: 100.0 mg/kg/injection, schedule: Q01DX001 (ip), vehicle: saline.
Setting [5] is: dose: 100.0 mg/kg/injection, schedule: Q01DX009 (ip), vehicle: Klucel (hydroxypropylcellulose) (HPC).
Where [6] appears, read: dose: 200.0 mg/kg/injection, schedule: Q01DX009 (ip), vehicle: Klucel (hydroxypropylcellulose) (HPC).
Where [7] appears, read: dose: 400.0 mg/kg/injection, schedule: Q01DX009 (ip), vehicle: Klucel (hydroxypropylcellulose) (HPC).
The mark [8] stands for this setting: dose: 100.0 mg/kg/injection, schedule: Q04DX003 (ip), vehicle: Klucel (hydroxypropylcellulose) (HPC).
Setting [9] is: dose: 200.0 mg/kg/injection, schedule: Q04DX003 (ip), vehicle: Klucel (hydroxypropylcellulose) (HPC).
Setting [10] is: dose: 400.0 mg/kg/injection, schedule: Q04DX003 (ip), vehicle: Klucel (hydroxypropylcellulose) (HPC).
The mark [11] stands for this setting: dose: 100.0 mg/kg/injection, schedule: Q01DX009 (ip), vehicle: saline.
Where [12] appears, read: dose: 200.0 mg/kg/injection, schedule: Q01DX009 (ip), vehicle: saline.
Where [13] appears, read: dose: 100.0 mg/kg/injection, schedule: Q01DX001 (ip), vehicle: Klucel (hydroxypropylcellulose) (HPC).
The mark [14] stands for this setting: dose: 200.0 mg/kg/injection, schedule: Q01DX001 (ip), vehicle: Klucel (hydroxypropylcellulose) (HPC).
[15] abbreviates: dose: 400.0 mg/kg/injection, schedule: Q01DX001 (ip), vehicle: Klucel (hydroxypropylcellulose) (HPC).
Where [16] appears, read: dose: 200.0 mg/kg/injection, schedule: Q01DX001 (ip), vehicle: saline.
Where [17] appears, read: dose: 400.0 mg/kg/injection, schedule: Q01DX001 (ip), vehicle: saline.

Where “and” joins values, the source holds several entries; their conditions need not be identical. Equal entries are not always repeated. Toxic doses and inconclusive results are not listed.

Data on 23 compounds can be found in PubChem BioAssay AID248 (DTP/NCI, 2004).

Turning to `O=C(Nc1cccc2ccccc12)O/N=C/c1ccccn1`, the T/C is 94 % of control (dose: 50.0 mg/kg/injection, schedule: Q01DX009 (ip), vehicle: saline with Tween-80); 86 % of control and 87 % of control (dose: 100.0 mg/kg/injection, schedule: Q01DX009 (ip), vehicle: saline with Tween-80); 87 % of control under setting [1]; 94 % of control (dose: 200.0 mg/kg/injection, schedule: Q01DX009 (ip), vehicle: saline with Tween-80); 90 % of control under setting [2]; 107 % of control (dose: 400.0 mg/kg/injection, schedule: Q01DX009 (ip), vehicle: saline with Tween-80). For the same compound, the T/C under setting [3] was 95 % of control.
In the case of `CC1(C)C2CCC1(CS(=O)(=O)O)C(=O)C2.[Ag]` (stereo not given), the T/C is 92 % of control (dose: 3.12 mg/kg/injection, schedule: Q01DX009 (ip), vehicle: saline with Tween-80); 87 % of control (dose: 6.25 mg/kg/injection, schedule: Q01DX009 (ip), vehicle: saline with Tween-80); 90 % of control (dose: 12.5 mg/kg/injection, schedule: Q01DX009 (ip), vehicle: saline with Tween-80).
For `CC(Br)CN1CCOCC1` (stereo not given), the T/C under setting [4] was 103 % of control.
`CC(COC(=O)c1ccc(N)cc1)NC1CCCC1` (stereo not given): the T/C by setting is: (dose: 75.0 mg/kg/injection, schedule: Q01DX001 (ip), vehicle: saline) 97 % of control; (dose: 150.0 mg/kg/injection, schedule: Q01DX001 (ip), vehicle: saline) 105 % of control.
With `COc1ccc(Cl)cc1NC(=O)Nc1ccc(F)c([N+](=O)[O-])c1`, the T/C was 106 % of control under setting [5], 104 % of control under setting [6] and 102 % of control under setting [7].
As for `CCCCOC(=O)/C=C\C(=O)NC(N)=O`, the T/C (dose: 31.0 mg/kg/injection, schedule: Q01DX Z (ip), vehicle: methylcellulose (MC)) was 98 % of control and the T/C (dose: 51.0 mg/kg/injection, schedule: Q01DX Z (ip), vehicle: methylcellulose (MC)) is 101 % of control.
As for `COc1cc(C(C)=O)cc(OC)c1OC`, the T/C is 102 % of control under setting [1], 96 % of control under setting [2] and 98 % of control under setting [3].
For the compound `CCOC(=O)C(C)Nc1ccccc1` (stereo not given), the T/C by setting is: under setting [5], 100 % of control; under setting [8], 103 % of control; under setting [6], 104 % of control; under setting [9], 118 % of control; under setting [7], 98 % of control; under setting [10], 98 % of control.
In the case of `COc1cccc(NC(=S)NCCO)c1`, the T/C was 103 % of control under setting [8], 110 % of control under setting [9] and 110 % of control under setting [10].
On to `CC(=O)COC(=O)c1ccc(N(C)CC(C)=O)cc1`, for which the T/C under setting [8] is 95 % of control, the T/C under setting [9] is 86 % of control and the T/C under setting [10] was 93 % of control.
As to `C[n+]1ccc(/C=C/c2ccc(Cl)c(Cl)c2)c2ccccc21`, the T/C reads like this: (dose: 12.5 mg/kg/injection, schedule: Q04DX003 (ip), vehicle: Klucel (hydroxypropylcellulose) (HPC)) 98 % of control; (dose: 25.0 mg/kg/injection, schedule: Q04DX003 (ip), vehicle: Klucel (hydroxypropylcellulose) (HPC)) 100 % of control; (dose: 50.0 mg/kg/injection, schedule: Q04DX003 (ip), vehicle: Klucel (hydroxypropylcellulose) (HPC)) 96 % of control.
On to `CSC1=NCCN1`, for which the T/C under setting [11] was 104 % of control; the T/C under setting [12] is 100 % of control; the T/C (dose: 400.0 mg/kg/injection, schedule: Q01DX009 (ip), vehicle: saline) was 104 % of control.
For the compound `CC(=O)c1ccc(C(=O)NCCCc2c(-c3ccccc3)nc(N)[nH]c2=O)cc1`, the T/C under setting [13] was 94 % of control, the T/C under setting [14] is 94 % of control and the T/C under setting [15] is 96 % of control.
For `Cc1ccc(S(=O)(=O)CC#CCOc2ccccc2)cc1`, the T/C is 92 % of control (dose: 50.0 mg/kg/injection, schedule: Q01DX009 (ip), vehicle: saline); 92 % of control under setting [4]; 105 % of control under setting [11]; 97 % of control under setting [16]; 92 % of control under setting [12]; 101 % of control under setting [17].
Turning to `O=COC(CCCc1ccccc1)c1ccc2c(c1)OCO2` (stereo not given), the T/C reads like this: (dose: 100.0 mg/kg/injection, schedule: Q04DX003 (ip), vehicle: other) 93 % of control; (dose: 200.0 mg/kg/injection, schedule: Q04DX003 (ip), vehicle: other) 93 % of control; (dose: 400.0 mg/kg/injection, schedule: Q04DX003 (ip), vehicle: other) 98 % of control.
In the case of `Nc1cccc(OCCCn2cc(-c3ccc(Cl)c(Cl)c3)c(N)nc2=O)c1`, the T/C by setting is: under setting [13], 99 % of control; under setting [14], 92 % of control; under setting [15], 100 % of control.
Consider `ClC1=C(Cl)C2(Cl)CC(Cl)C1C2(Cl)Cl` (stereo not given), for which the T/C (dose: 10.0 mg/kg/injection, schedule: Q01DX001 (ip), vehicle: acetone) is 105 % of control and the T/C (dose: 20.0 mg/kg/injection, schedule: Q01DX001 (ip), vehicle: acetone) was 105 % of control.
With `CC1N=C(c2ccc(NC(=O)c3ccc(C(=O)Nc4ccc(C5=NC(C)C(C)N5)cc4)cc3)cc2)NC1C` (stereo not given), the T/C is, setting by setting: (dose: 0.5 mg/kg/injection, schedule: Q01DX015 (ip), vehicle: water) 104 % of control; (dose: 0.75 mg/kg/injection, schedule: Q01DX001 (ip), vehicle: water) 101 % of control; (dose: 1.0 mg/kg/injection, schedule: Q01DX015 (ip), vehicle: water) 110 % of control; (dose: 1.5 mg/kg/injection, schedule: Q01DX001 (ip), vehicle: water) 98 % of control; (dose: 2.0 mg/kg/injection, schedule: Q01DX001 (ip), vehicle: water) 106 % of control; (dose: 3.0 mg/kg/injection, schedule: Q01DX001 (ip), vehicle: water) 103 % of control. For the same compound, the T/C by setting is: (dose: 3.0 mg/kg/injection, schedule: Q01DX015 (ip), vehicle: water) 189 % of control; (dose: 4.0 mg/kg/injection, schedule: Q01DX015 (ip), vehicle: water) 222 % of control.
For the compound `N=C(N)N=Nc1ccc(NN=C(N)N)cc1`, the T/C is, setting by setting: (dose: 3.75 mg/kg/injection, schedule: Q01DX Z (ip), vehicle: saline) 96 % of control; (dose: 7.5 mg/kg/injection, schedule: Q01DX Z (ip), vehicle: saline) 103 % of control; (dose: 30.0 mg/kg/injection, schedule: Q01DX Z (ip), vehicle: saline) 118 % of control; (dose: 60.0 mg/kg/injection, schedule: Q01DX Z (ip), vehicle: saline) 98 % of control and 87 % of control.
On to `NNC(=O)C1C2CCCCC21` (stereo not given), for which the T/C under setting [1] was 107 % of control.
Consider `CC12CC3CC(C)(C1)CC(CN=C(N)CS)(C3)C2`, for which the T/C (dose: 2.5 mg/kg/injection, schedule: Q01DX009 (ip), vehicle: Klucel (hydroxypropylcellulose) (HPC)) is 109 % of control; the T/C (dose: 2.5 mg/kg/injection, schedule: Q04DX002 (ip), vehicle: Klucel (hydroxypropylcellulose) (HPC)) is 96 % of control; the T/C (dose: 5.0 mg/kg/injection, schedule: Q01DX009 (ip), vehicle: Klucel (hydroxypropylcellulose) (HPC)) was 114 % of control; the T/C (dose: 5.0 mg/kg/injection, schedule: Q04DX002 (ip), vehicle: Klucel (hydroxypropylcellulose) (HPC)) is 101 % of control; the T/C (dose: 10.0 mg/kg/injection, schedule: Q01DX009 (ip), vehicle: Klucel (hydroxypropylcellulose) (HPC)) is 111 % of control; the T/C (dose: 10.0 mg/kg/injection, schedule: Q04DX002 (ip), vehicle: Klucel (hydroxypropylcellulose) (HPC)) was 102 % of control.
As to `O=P(NC(=S)OCCN1CC1)(NC(=S)OCCN1CC1)NC(=S)OCCN1CC1`, the T/C (dose: 100.0 mg/kg/injection, schedule: Q01DX001 (ip), vehicle: carboxymethylcellulose (CMC)) was 107 % of control and the T/C (dose: 200.0 mg/kg/injection, schedule: Q01DX001 (ip), vehicle: carboxymethylcellulose (CMC)) was 96 % of control.
For the compound `O=C1NC(=S)SC1C(Cc1ccccc1)Cc1ccccc1` (stereo not given), the T/C was 97 % of control under setting [4], 97 % of control under setting [16] and 101 % of control under setting [17].
